The results in this text go back to patent US11382956B2, “Amylin analogues” (Zealand Pharma A/S, priority 2016, dated 2022).

Data set [1] concerns the target T1, recombinant human calcitonin receptor (hCT-R) (Homo sapiens, UniProt P30988).
T1 construct: host or cells: human astrocytoma cell line 1321N1
T1 sequence (P30988 25-474): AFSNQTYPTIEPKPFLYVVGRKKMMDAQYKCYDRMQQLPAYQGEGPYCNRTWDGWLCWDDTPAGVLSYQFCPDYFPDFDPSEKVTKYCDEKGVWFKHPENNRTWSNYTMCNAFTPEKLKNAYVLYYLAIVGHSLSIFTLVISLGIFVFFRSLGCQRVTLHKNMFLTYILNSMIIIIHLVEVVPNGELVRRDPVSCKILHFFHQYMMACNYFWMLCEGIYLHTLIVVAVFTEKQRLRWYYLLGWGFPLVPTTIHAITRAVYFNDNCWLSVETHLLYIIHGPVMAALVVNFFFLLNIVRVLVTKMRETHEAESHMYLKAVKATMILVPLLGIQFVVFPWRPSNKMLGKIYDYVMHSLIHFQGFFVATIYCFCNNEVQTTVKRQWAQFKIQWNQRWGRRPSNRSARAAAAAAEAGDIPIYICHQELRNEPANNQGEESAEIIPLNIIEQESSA
The data set is described as follows: hCT-R cAMP assay (AlphaScreen) in 1321N1 cells. It counts as cell-based. Particulars: cAMP formation, 45 min stimulation. An excerpt:
(§1) For the assessment of the in vitro activity of test peptides, cell lines expressing recombinant human calcitonin receptor (hCT-R) or recombinant human amylin 3 receptor (hAMYR3) in the background of the human astrocytoma cell line 1321N1 were purchased from DiscoveRx Corporation (Cat. No. 95-016106 and 95-0166C6). The hAMYR3 is a hetero-oligomer of the calcitonin receptor (Isoform 2; Gene ID 799) and RAMPS (Gene ID 10268) that forms when both genes are expressed in the same cell. The hCT-R cell line expresses only the recombinant human calcitonin receptor gene (Isoform 2; Gene ID 799). Upon activation of hCT-R or hAMYR3 by the test peptides the formation of cAMP is induced and was measured using the AlphaScreen® cAMP Assay kit from Perkin-Elmer (Cat. No. 6760635R).
(§2) Briefly, 1321N1 cells expressing hCT-R or hAMYR3 were seeded in 384-well microtiter plates (Falcon Optilux White, Cat.-No. 10448642) at 5,000 cells in […] growth medium per well (AssayComplete 1321N1 Cell Culture Kit, DiscoveRx Corp.), and incubated for 24 h at 37° C., 5% CO2. On the day of analysis growth medium was removed and the cells were stimulated by adding 10 μL of stimulation buffer (10 […], 0.1% BSA) containing increasing concentrations of test peptides, and incubation for 45 min at room temperature. The stimulation was stopped by adding 5.6 μL/well donor bead detection mix (5 mM Hepes pH7.4, 0.5% TWEEN 20, 0.1% BSA, 0.05 mg/mL donor beads, 62.5 nM biotinylated cAMP) and 4.5 μL/well acceptor bead solution (5 mM Hepes pH7.4, 0.5% TWEEN 20, 0.1% BSA, 0.05 mg/mL acceptor beads). After thorough mixing the plates were incubated in the dark for 1 h at room temperature and the cAMP content of the resulting cell lysates was estimated according to the AlphaScreen® cAMP Assay manufacturer's instructions. EC50 values were estimated by computer-aided curve fitting of results of at least 7 different compound concentrations.
On the technique in general: cAMP levels reflect the balance of adenylyl cyclase and phosphodiesterase activity.

Data set [2] deals with T2, recombinant human amylin 3 receptor (hAMYR3) (Homo sapiens, UniProt O60896+P30988).
T2 construct: host or cells: human astrocytoma cell line 1321N1
T2 sequence (P30988 25-474): T1 sequence (P30988 25-474)
T2 sequence (O60896 24-148 partner): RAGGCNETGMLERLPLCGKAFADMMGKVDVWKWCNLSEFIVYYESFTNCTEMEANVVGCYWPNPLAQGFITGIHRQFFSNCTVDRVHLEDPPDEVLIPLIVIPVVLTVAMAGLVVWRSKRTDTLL
The data set is described as follows: hAMYR3 cAMP assay (AlphaScreen) in 1321N1 cells. It is filed as cell-based. Particulars: cAMP formation, 45 min stimulation.
Excerpt: as §1, §2

The nature of data set [3]: Assessment of chemical stability in 40 mM buffers at 40° C. (RP-HPLC). It is filed as physicochemical. Particulars: 1 mg/mL. How it is done:
Samples of each test peptide were dissolved in acetate buffer pH 4 and phosphate buffer pH 6 and 7 (all buffer 40 mM). The final peptide concentration was 1 mg/mL. Samples were placed in glass vials and incubated at 40° C. The samples were analyzed by RP-HPLC on a C8 column with gradient elution using a trifluoroacetic acid/acetonitrile/water eluent system. The area-percentage (area-%) of the main peak was determined by UV spectroscopy at 220 nm at each sampling time point.
The % degradation was calculated by subtracting the […].
The results of the chemical stability assessment after 3 days of incubation time are summarized as % degradation in Table 1 (below).
The results of the chemical stability assessment after 14 days of incubation time are summarized as % degradation in Table 2 (below).

Numbered stars: 1 amine (or outer) side, 2 acyl side, 3 side chain; on linkers, the order of the positions; unused ones are H or OH. Bridge positions count the residues as written; N and C are the ends. Square brackets hold non-standard residues; d marks the D form. Peptide text beside a SMILES is read from it. * marks the point of attachment. C20 diacid = O=C(O)CCCCCCCCCCCCCCCCCCC(=O)*; γGlu = O=C(O)[C@H](CCC(=O)[*:2])N[*:1]; Hyp = O=C(O)[C@@H]1C[C@@H](O)CN1; NMeI = CC[C@H](C)[C@H](NC)C(=O)O; Aad = N[C@@H](CCCC(=O)O)C(=O)O; Orn = NCCC[C@H](N)C(=O)O; Sar = CNCC(=O)O

What is called EC50 is the midpoint of the concentration-response curve. Regarding `CC[C@H](C)[C@@H](C(=O)N1CCC[C@H]1C(=O)N[C@@H](CO)C(=O)N[C@@H](CO)C(=O)N[C@H](C(=O)N[C@@H](CCC(=O)O)C(=O)N[C@H](C(=O)NCC(=O)N[C@@H](CO)C(=O)N[C@@H](CC(N)=O)C(=O)N[C@H](C(=O)N1C[C@H](O)C[C@H]1C(N)=O)[C@@H](C)O)C(C)C)[C@@H](C)O)N(C)C(=O)[C@H](C)NC(=O)CN(C)C(=O)[C@H](Cc1ccccc1)NC(=O)[C@H](CO)NC(=O)[C@H](CO)NC(=O)[C@H](CCCNC(=N)N)NC(=O)[C@H](CCC(N)=O)NC(=O)[C@H](CC(C)C)NC(=O)[C@H](Cc1ccccc1)NC(=O)[C@H](Cc1c[nH]cn1)NC(=O)[C@H](C)NC(=O)[C@H](CC(C)C)NC(=O)[C@H](CCCNC(=N)N)NC(=O)[C@H](CCC(N)=O)NC(=O)[C@@H](NC(=O)[C@H](C)NC(=O)[C@@H]1CCCNC(=O)C[C@H](NC(=O)[C@H](CCCNC(=N)N)NC(=O)CC[C@H](NC(=O)CCCCCCCCCCCCCCCCCCC(=O)O)C(=O)O)C(=O)NCC(=O)N[C@@H]([C@@H](C)O)C(=O)N[C@@H](C)C(=O)N[C@@H]([C@@H](C)O)C(=O)N1)[C@@H](C)O` [Compound 9, [19CD]-isoGlu-RD()GTAT-Orn()-ATQRLAHFLQRSSF-Gly(Me)-A-Ile(Me)-PSSTEVGSNT-Hyp-NH2] ({C20 diacid-γGlu}-RDGTAT[Orn]ATQRLAHFLQRSSF[Sar]A[NMeI]PSSTEVGSNT[Hyp]-NH2; lactam 2-7), the concentration for a half-maximal effect (EC50) was 0.027 nM in data set [1] and 0.013 nM in data set [2].
For `CC[C@H](C)[C@@H](C(=O)N[C@@H](CC(C)C)C(=O)N[C@@H](CO)C(=O)N[C@@H](CO)C(=O)N[C@H](C(=O)N[C@@H](CCC(=O)O)C(=O)N[C@H](C(=O)NCC(=O)N[C@@H](CO)C(=O)N[C@@H](CC(N)=O)C(=O)N[C@H](C(=O)N1C[C@H](O)C[C@H]1C(N)=O)[C@@H](C)O)C(C)C)[C@@H](C)O)N(C)C(=O)[C@H](C)NC(=O)CN(C)C(=O)[C@H](Cc1ccccc1)NC(=O)[C@H](CO)NC(=O)[C@H](CO)NC(=O)[C@H](CCCNC(=N)N)NC(=O)[C@H](CCC(N)=O)NC(=O)[C@H](CC(C)C)NC(=O)[C@H](Cc1ccccc1)NC(=O)[C@H](CCCC(=O)O)NC(=O)[C@H](C)NC(=O)[C@H](CC(C)C)NC(=O)[C@H](CCCNC(=N)N)NC(=O)[C@H](CCC(=O)O)NC(=O)[C@@H](NC(=O)[C@H](C)NC(=O)[C@H](CCCN)NC(=O)[C@@H](NC(=O)[C@H](C)NC(=O)[C@@H](NC(=O)CNC(=O)[C@H](CC(=O)O)NC(=O)[C@H](CCCNC(=N)N)NC(=O)CC[C@H](NC(=O)CCCCCCCCCCCCCCCCCCC(=O)O)C(=O)O)[C@@H](C)O)[C@@H](C)O)[C@@H](C)O` [Ref. 3, [19CD]-isoGlu-RDGTAT-Orn-ATERLA-Aad-FLQRSSF-Sar-A-Ile(Me)-LSSTEVGSNT-Hyp-NH2, reference compound] ({C20 diacid-γGlu}-RDGTAT[Orn]ATERLA[Aad]FLQRSSF[Sar]A[NMeI]LSSTEVGSNT[Hyp]-NH2), in that order: 18.2 nM and 13.2 nM.
For `CC[C@H](C)[C@@H](C(=O)N[C@@H](CC(C)C)C(=O)N[C@@H](CO)C(=O)N[C@@H](CO)C(=O)N[C@H](C(=O)N[C@@H](CCC(=O)O)C(=O)N[C@H](C(=O)NCC(=O)N[C@@H](CO)C(=O)N[C@@H](CC(N)=O)C(=O)N[C@H](C(=O)N1C[C@H](O)C[C@H]1C(N)=O)[C@@H](C)O)C(C)C)[C@@H](C)O)N(C)C(=O)[C@H](C)NC(=O)CN(C)C(=O)[C@H](Cc1ccccc1)NC(=O)[C@@H](NC(=O)[C@@H](NC(=O)[C@H](CCCNC(=N)N)NC(=O)[C@H](CCC(N)=O)NC(=O)[C@H](CC(C)C)NC(=O)[C@H](Cc1ccccc1)NC(=O)[C@H](CCCC(=O)O)NC(=O)[C@H](C)NC(=O)[C@H](CC(C)C)NC(=O)[C@H](CCCNC(=N)N)NC(=O)[C@H](CCC(=O)O)NC(=O)[C@@H](NC(=O)[C@H](C)NC(=O)[C@@H]1CCCNC(=O)C[C@H](NC(=O)[C@H](CCCNC(=N)N)NC(=O)CC[C@H](NC(=O)CCCCCCCCCCCCCCCCCCC(=O)O)C(=O)O)C(=O)NCC(=O)N[C@@H]([C@@H](C)O)C(=O)N[C@@H](C)C(=O)N[C@@H]([C@@H](C)O)C(=O)N1)[C@@H](C)O)[C@@H](C)O)[C@@H](C)O` [Compound 23, [19CD]-isoGlu-RD()GTAT-Orn()-ATERLA-Aad-FLQRTTF-Gly(Me)-A-Ile(Me)-LSSTEVGSNT-Hyp-NH2] ({C20 diacid-γGlu}-RDGTAT[Orn]ATERLA[Aad]FLQRTTF[Sar]A[NMeI]LSSTEVGSNT[Hyp]-NH2; lactam 2-7), in that order: 1.93 nM and 0.706 nM.
With `CC[C@H](C)[C@@H](C(=O)N[C@@H](CC(C)C)C(=O)N[C@@H](CO)C(=O)N[C@@H](CO)C(=O)N[C@H](C(=O)N[C@@H](CCC(=O)O)C(=O)N[C@H](C(=O)NCC(=O)N[C@@H](CO)C(=O)N[C@@H](CC(N)=O)C(=O)N[C@H](C(=O)N1C[C@H](O)C[C@H]1C(N)=O)[C@@H](C)O)C(C)C)[C@@H](C)O)N(C)C(=O)[C@H](C)NC(=O)CN(C)C(=O)[C@H](Cc1ccccc1)NC(=O)[C@H](CO)NC(=O)[C@H](CO)NC(=O)[C@H](CCCNC(=N)N)NC(=O)[C@H](CCC(N)=O)NC(=O)[C@H](CC(C)C)NC(=O)[C@H](Cc1ccccc1)NC(=O)[C@H](Cc1c[nH]cn1)NC(=O)[C@H](C)NC(=O)[C@H](CC(C)C)NC(=O)[C@H](CCCNC(=N)N)NC(=O)[C@H](CCC(=O)O)NC(=O)[C@@H](NC(=O)[C@H](C)NC(=O)[C@@H]1CCCCNC(=O)C[C@H](NC(=O)[C@H](CCCNC(=N)N)NC(=O)CC[C@H](NC(=O)CCCCCCCCCCCCCCCCCCC(=O)O)C(=O)O)C(=O)NCC(=O)N[C@@H]([C@@H](C)O)C(=O)N[C@@H](CC(C)C)C(=O)N[C@@H]([C@@H](C)O)C(=O)N1)[C@@H](C)O` [Compound 13, [19CD]-isoGlu-RD()GTLTK()ATERLAHFLQRSSF-Gly(Me)-A-Ile(Me)-LSSTEVGSNT-Hyp-NH2] ({C20 diacid-γGlu}-RDGTLTKATERLAHFLQRSSF[Sar]A[NMeI]LSSTEVGSNT[Hyp]-NH2; lactam 2-7), the EC50 in data set [1] worked out at 1.41 nM; in data set [2], 0.456 nM.
Consider “N-α-[(S)-4-carboxy-4-(19-carboxynonadecanoylamino)butyryl]-[Arg1,Glu14,His17,Pro37]-pramlintide [NN96, reference compound]”, for which the “% degradation after 14 days at 40° C. pH4 acetate” value in data set [3] (acetate buffer pH 4, 14 days) is listed as 3.0%. Besides, the “% degradation after 14 days at 40° C. pH6 phosphate” value in data set [3] (phosphate buffer pH 6, 14 days) came to 10.1%. Further, the “% degradation after 14 days at 40° C. pH7 phosphate” value in data set [3] (phosphate buffer pH 7, 14 days) is recorded as 33.2%.
